Literature values in patent US9012510B2, “Oleoylethanolamide based functional mesophases” (Nestec S.A., priority 2008, dated 2015).

Conditions: Thabuis et al., Lipid Technology 2007, 19, 225

Q: Which “effect of administration on food intake and gain in body mass” value does the source give for `CCCCCCCC/C=C\CCCCCCCC(=O)NCCO` [OEA, oleoylethanolamide] here?
A: potent and persistent decrease in food intake and gain in body mass
